# Patent US20120190546A1, “HERBICIDAL COMPOSITION AND METHOD OF USE THEREOF” (SYNGENTA CROP PROTECTION LLC, priority 2007, published 2012)
# Tests used:
# white clover = assay: Glasshouse trial: control of white clover with mesotrione and oxadiazon applied pre-emergence; format: in vivo, Trifolium repens; design: key to Synergy (actual vs expected), Plus Mesotrione at 25 g ai/ha / Synergy (actual vs expected), Plus Mesotrione at 50 g ai/ha: ‘n’indicates no synergy observed; *indicates synergy
# Method: (§1) In the following tests, herbicides were applied at reduced field rates because herbicide effects are magnified in a glasshouse environment. The rates tested were selected to give between about 50 and 70% control with herbicides applied alone, so that any synergistic effect could be readily detected when testing mixtures.
# (§2) A glasshouse trial was carried out. White clover seeds were sown into standard glasshouse potting mix (1:1 v/v Promix:Vero sand soil) contained in 10 cm square plastic pots. Treatments were replicated three times. Mesotrione (in the form Callisto® 480SE) was applied post-emergence to white clover (Trifolium repens) at either 100 g ai/ha or 150 g ai/ha with or without oxadiazon (in the form Ronstar®). When used, oxadiazon was applied at a rate of 210 g ai/ha or 420 g ai/ha. The adjuvant system was X-77 at 0.1% v/v in deionised water. 200 litres of herbicide/adjuvant system was used per hectare. General weed control was evaluated at 7 and 14 days after treatment (DAT). It is noted that all herbicides were applied at reduced field rates because herbicide effects are magnified in a glasshouse environment. Rates were chosen to give a 50 to 70% level of control with herbicides applied alone as this allows for detection of any synergistic effect when tank mixtures are used.
# (§3) The results were evaluated using the Colby formula. The expected result for (A+B) is (A+B)−(AxB/100) where A and B are the ‘observed’ results for A and B on their own.
# A glasshouse trial was carried out as described in Example 1, except that the herbicidal composition was applied pre-emergence, and lower rates of mesotrione were used as indicated below.
# [1] = system: white clover (Trifolium repens); assay: Glasshouse trial: control of white clover with mesotrione and oxadiazon applied post-emergence; format: in vivo; design: key to Synergy (actual vs expected), Plus Mesotrione at 100 g ai/ha / Synergy (actual vs expected), Plus Mesotrione at 150 g ai/ha: ‘n’indicates no synergy observed; *indicates synergy; conditions: for Synergy (actual vs expected), Plus Mesotrione at 100 g ai/ha / Synergy (actual vs expected), Plus Mesotrione at 150 g ai/ha: Student-Newman-Keuls test; for Actual weed control, Plus Mesotrione at 100 g ai/ha / Actual weed control, Plus Mesotrione at 150 g ai/ha: X-77 0.1% v/v, evaluated 7 and 14 DAT (not said which)
# Method: as §1, §2, §3
# [2] = oxadiazon 210 g ai/ha + mesotrione 25 g ai/ha
# [3] = oxadiazon 210 g ai/ha + mesotrione 50 g ai/ha
# [4] = oxadiazon 420 g ai/ha + mesotrione 25 g ai/ha
# [5] = oxadiazon 420 g ai/ha + mesotrione 50 g ai/ha
# [6] = oxadiazon 210 g ai/ha + mesotrione 100 g ai/ha
# [7] = oxadiazon 210 g ai/ha + mesotrione 150 g ai/ha
# [8] = oxadiazon 420 g ai/ha + mesotrione 100 g ai/ha
# [9] = oxadiazon 420 g ai/ha + mesotrione 150 g ai/ha
substance,measurement,setting,value
"5-tert-butyl-3-(2,4-dichloro-5-isopropoxyphenyl)-1,3,4-oxadiazol-2(3M-one [Oxadiazon]","Actual weed control, Plus Mesotrione at 25 g ai/ha",white clover; [2],100%
same,"Expected weed control (Colby formula), Plus Mesotrione at 25 g ai/ha",white clover; [2],77%
same,"Synergy (actual vs expected), Plus Mesotrione at 25 g ai/ha",white clover; [2],*
same,"Actual weed control, Plus Mesotrione at 50 g ai/ha",white clover; [3],98%
same,"Expected weed control (Colby formula), Plus Mesotrione at 50 g ai/ha",white clover; [3],83%
same,"Synergy (actual vs expected), Plus Mesotrione at 50 g ai/ha",white clover; [3],*
same,"Actual weed control, Plus Mesotrione at 25 g ai/ha",white clover; [4],97%
same,"Expected weed control (Colby formula), Plus Mesotrione at 25 g ai/ha",white clover; [4],96%
same,"Synergy (actual vs expected), Plus Mesotrione at 25 g ai/ha",white clover; [4],*
same,"Actual weed control, Plus Mesotrione at 50 g ai/ha",white clover; [5],100%
same,"Expected weed control (Colby formula), Plus Mesotrione at 50 g ai/ha",white clover; [5],97%
same,"Synergy (actual vs expected), Plus Mesotrione at 50 g ai/ha",white clover; [5],*
same,"Expected weed control (Colby formula), Plus Mesotrione at 100 g ai/ha",[1]; [6],48%
same,"Synergy (actual vs expected), Plus Mesotrione at 100 g ai/ha",[1]; [6],n
same,"Actual weed control, Plus Mesotrione at 100 g ai/ha",[1]; [6],48%
same,"Expected weed control (Colby formula), Plus Mesotrione at 150 g ai/ha",[1]; [7],68%
same,"Synergy (actual vs expected), Plus Mesotrione at 150 g ai/ha",[1]; [7],*
same,"Actual weed control, Plus Mesotrione at 150 g ai/ha",[1]; [7],77%
same,"Expected weed control (Colby formula), Plus Mesotrione at 100 g ai/ha",[1]; [8],49%
same,"Synergy (actual vs expected), Plus Mesotrione at 100 g ai/ha",[1]; [8],*
same,"Actual weed control, Plus Mesotrione at 100 g ai/ha",[1]; [8],75%
same,"Expected weed control (Colby formula), Plus Mesotrione at 150 g ai/ha",[1]; [9],69%
same,"Synergy (actual vs expected), Plus Mesotrione at 150 g ai/ha",[1]; [9],*
same,"Actual weed control, Plus Mesotrione at 150 g ai/ha",[1]; [9],77%
